# Source: PubChem BioAssay (NCI)
# Several values for one entry are separate records, joined by “and”; a condition that tells them apart may be missing. Equal values may be shown once.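 Dose response: 5 concentrations. Exposure: 48 h. Format: 96-well plates. Endpoint: linear interpolation; highest concentration if not reached. At the GI50, growth is halved. TGI denotes the concentration required for complete inhibition of growth.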
# Assays:
# Assay in all cases: NCI tumour cell line growth inhibition, 48 h
# DU-145 prostate = system: DU-145 prostate
# BT-549 breast = system: BT-549 breast
# NCI/ADR-RES ovarian = system: NCI/ADR-RES ovarian
# SK-MEL-28 melanoma = system: SK-MEL-28 melanoma
# KM12 colon = system: KM12 colon
# HL-60(TB) leukemia = system: HL-60(TB) leukemia
# UO-31 renal = system: UO-31 renal
# EKVX NSCLC = system: EKVX NSCLC
# NCI-H522 lung = system: NCI-H522 lung
# HCT-116 colon = system: HCT-116 colon
Structure (SMILES),TGI (DU-145 prostate),TGI (BT-549 breast),TGI (NCI/ADR-RES ovarian),TGI (SK-MEL-28 melanoma),TGI (KM12 colon),TGI (HL-60(TB) leukemia),TGI (UO-31 renal),TGI (EKVX NSCLC),TGI (NCI-H522 lung),TGI (HCT-116 colon),GI50 (DU-145 prostate),GI50 (BT-549 breast),GI50 (NCI/ADR-RES ovarian),GI50 (SK-MEL-28 melanoma),GI50 (KM12 colon),GI50 (HL-60(TB) leukemia),GI50 (UO-31 renal),GI50 (EKVX NSCLC),GI50 (NCI-H522 lung),GI50 (HCT-116 colon)
CC1=COC2=C(C)C(=O)C(=O)c3c(C)ccc1c32,20.3 µM,38.3 µM,7.87 µM,> 100 µM,26.4 µM,5.38 µM,40.6 µM,24.7 µM,8.27 µM,20.6 µM,–,–,–,–,–,–,–,–,–,–
C#C[C@]1(O)CC[C@H]2[C@@H]3CC=C4c5nc(Nc6ccc(OC)cc6OC)sc5CC[C@]4(C)[C@H]3CC[C@@]21C,10.8 µM,4.77 µM,17 µM,2.7 µM,5.57 µM,5.91 µM,5.16 µM,17.8 µM,5.79 µM,2.7 µM,2.32 µM,0.656 µM,2.36 µM,0.712 µM,2.07 µM,1.42 µM,1.36 µM,2.66 µM,2.22 µM,1.21 µM
CN(C)CCCC1(c2ccc(F)cc2)OCc2cc(-c3ccc4cc[nH]c4c3)ccc21 (stereo not drawn),3.46 µM,7.62 µM,5.31 µM,3.36 µM,3.42 µM,3.77 µM,2.82 µM,5 µM,4.49 µM,3.57 µM,1.9 µM,2.35 µM,2.21 µM,1.8 µM,1.85 µM,1.74 µM,1.45 µM,2.04 µM,2.07 µM,1.88 µM
C/C=C(/C)C(=O)OC1C=C(CO)C(=O)C(OC(=O)/C(C)=C\C)C1C(C)C (stereo not drawn),1.95 µM,2.88 µM,6.11 µM,2.8 µM,3.02 µM,3.86 µM,2.57 µM,3.22 µM,2.23 µM,1.67 µM,0.618 µM,1.45 µM,1.57 µM,1.39 µM,1.45 µM,0.403 µM,1.29 µM,1.75 µM,0.63 µM,0.49 µM
O=C(c1cccs1)c1c(C(F)(F)F)n([O-])c2cc(F)c(F)cc2[n+]1=O,4.86 µM,3.24 µM,4.77 µM,3.7 µM,8.73 µM,5.65 µM,5.51 µM,6.73 µM,3.13 µM,8.01 µM,1.9 µM,1.91 µM,2.1 µM,1.91 µM,4.95 µM,0.904 µM,2.97 µM,2.44 µM,1.84 µM,1.82 µM
CS(=O)(=O)c1ccc(C(F)(F)F)cc1NC(=O)Nc1cnc(Oc2ccc(-c3cc(Cl)cnc3N)cc2)nc1,> 54.2 µM,6.5 µM,> 31 µM,5.62 µM,3.6 µM,5.75 µM,6.72 µM,> 37.5 µM,6.64 µM,4.82 µM,3.21 µM,2.26 µM,2.92 µM,2.21 µM,–,2.63 µM,1.86 µM,2.57 µM,2.23 µM,2.17 µM
COCCOC(C)C(/C=N/NC(N)=S)=N/NC(N)=S (stereo not drawn),> 100 µM,> 100 µM,> 100 µM,> 100 µM,> 100 µM,> 58.9 µM,> 100 µM,> 100 µM,> 100 µM,> 100 µM,> 100 µM,> 100 µM,0.0732 µM,> 100 µM,> 100 µM,–,0.0513 µM,0.0905 µM,> 100 µM,0.0189 µM
Cc1cc(NC(=O)CCc2ccc(N3C(N)=NC(N)=NC3(C)C)cc2)ccc1S(=O)(=O)F,> 100 µM,> 91.9 µM,> 100 µM,> 100 µM,> 63.7 µM,> 100 µM,> 100 µM,> 100 µM,> 100 µM,> 100 µM,2.63 µM,6.53 µM,> 100 µM,> 32.6 µM,0.338 µM,3.45 µM,> 100 µM,0.884 µM,3.66 µM,0.62 µM
O=[N+]([O-])c1ccc2nc(N/N=C/c3ccc(O)cc3)sc2c1,38.1 µM,> 100 µM,> 100 µM,57.2 µM,17.2 µM,10.6 µM,> 100 µM,> 100 µM,10.2 µM,> 100 µM,3.96 µM,12.3 µM,3.86 µM,9.43 µM,2.72 µM,3.6 µM,8.22 µM,7.37 µM,1.49 µM,2.89 µM
Cc1cc(N2CCN(C)CC2)nc(NC2CCCC(Nc3ccnc4cc(Cl)ccc34)C2)n1 (stereo not drawn),12.7 µM,5.76 µM,13.3 µM,3.7 µM,10.1 µM,4.09 µM,2.86 µM,12.5 µM,5.3 µM,3.74 µM,3.05 µM,2.08 µM,3.34 µM,1.8 µM,2.89 µM,2.09 µM,1.49 µM,2.81 µM,2.29 µM,1.46 µM
COc1cc2cc(C(=O)O)[nH]c2cc1OCc1ccccc1,> 100 µM,> 100 µM,> 100 µM,> 100 µM,> 100 µM,> 100 µM,> 100 µM,> 100 µM,> 100 µM,> 100 µM,> 100 µM,> 100 µM,> 100 µM,53.5 µM,> 100 µM,> 100 µM,> 100 µM,> 100 µM,> 100 µM,> 100 µM
C=CCSc1n[nH]c(-c2cccs2)n1,> 100 µM,> 100 µM,> 100 µM,> 100 µM,> 100 µM,> 100 µM,> 100 µM,> 100 µM,> 100 µM,> 100 µM,> 100 µM,> 100 µM,> 100 µM,> 100 µM,> 100 µM,> 100 µM,> 100 µM,> 100 µM,> 100 µM,> 100 µM
CCN(C)S(=O)(=O)Nc1cccc(Nc2ncnc3cc(NC(=O)CCl)ccc23)c1Cl,8.86 µM,6.66 µM,> 25 µM,15.8 µM,12.2 µM,11.3 µM,7.93 µM,13.6 µM,2.03 µM,5.04 µM,3.69 µM,2.54 µM,9.17 µM,3.92 µM,4.39 µM,4.74 µM,4.17 µM,3.9 µM,0.693 µM,1.07 µM
C=C1CC2(OC1=O)c1ccccc1CCc1ccccc12,32.7 µM,3.78 µM,3.04 µM,3.35 µM,9.4 µM,3.26 µM,20.6 µM,20.3 µM,3.14 µM,2.75 µM,–,–,–,–,–,–,–,–,–,–
N#Cc1ccc(-n2cnc(NC(=O)[C@H]3CCN(C#N)C3)c2)cc1,49.4 µM,2.47 µM,> 86.8 µM,> 100 µM,11.8 µM,2.86 µM,4 µM,10.1 µM,4.43 µM,9.27 µM,1.52 µM,0.248 µM,2.41 µM,2.64 µM,1.58 µM,0.51 µM,0.546 µM,2.38 µM,0.567 µM,1.1 µM
COc1cc(/C=C2\C(=O)N(c3c(Cl)cccc3Cl)c3ccccc32)cc(OC)c1O,6.13 µM,18.4 µM,13.5 µM,13.5 µM,2.69 µM,8.74 µM,12.3 µM,25.1 µM,4.01 µM,4.83 µM,0.663 µM,3.2 µM,0.793 µM,1.25 µM,0.654 µM,1.01 µM,0.769 µM,5.23 µM,0.501 µM,0.292 µM
CC1=CC(C)C(O)C(C)/C=C/C(O)C/C=C(/C)C(=O)CC(O)C(C)\C=C/C=C/C=C\C(=O)NC2=C(O)c3cc(C)c(O)c(c3C(=O)C2=O)C1=O (stereo not drawn),> 100 µM,> 100 µM,> 100 µM,> 100 µM,> 100 µM,> 100 µM,> 100 µM,> 100 µM,> 100 µM,> 100 µM,–,–,–,–,–,–,–,–,–,–
CCOC(=O)C(=Cc1ccc(Br)cc1)C(=O)OCC,3.07 µM,3.11 µM,> 20.4 µM,3.62 µM,3.66 µM,7.53 µM,3.34 µM,4.64 µM,4.22 µM,2.92 µM,1.68 µM,1.49 µM,2.78 µM,1.89 µM,1.76 µM,1.63 µM,1.57 µM,1.88 µM,1.75 µM,1.4 µM
Cc1ccc(NC2=C(Cl)C(=O)c3nc(C)ccc3C2=O)cc1,2.85 µM,2.82 µM,4.62 µM,3.43 µM,12.1 µM,4.96 µM,2.88 µM,2.92 µM,4.53 µM,2.68 µM,1.47 µM,1.45 µM,1.73 µM,1.93 µM,2.59 µM,1.98 µM,1.53 µM,1.55 µM,1.88 µM,1.32 µM
NC(C(=O)O)C(N)C(=O)O (stereo not drawn),> 100 µM,> 100 µM,> 100 µM,> 100 µM,> 100 µM,> 100 µM,> 100 µM,> 100 µM,> 100 µM,> 100 µM,–,–,–,–,–,–,–,–,–,–
COc1ccc2[nH]cc(/C=C3\C(=O)Nc4ccccc43)c2c1,22.3 µM,21.4 µM,37 µM,42 µM,13 µM,4.26 µM,32.4 µM,15.1 µM,19.6 µM,14.5 µM,5.2 µM,2.9 µM,4.97 µM,10.5 µM,0.246 µM,1.78 µM,6.94 µM,2.73 µM,4.59 µM,3.41 µM
CCOC(=O)c1c(C)c2c(n1C)CSc1cc(S(=O)(=O)c3ccccc3)c(=O)[nH]c1-2,> 100 µM,> 100 µM,> 100 µM,> 100 µM,> 100 µM,> 100 µM,> 100 µM,74.9 µM,> 100 µM,86.9 µM,23.1 µM,21.1 µM,22.6 µM,37.2 µM,28.8 µM,25.2 µM,17.4 µM,14.6 µM,25.4 µM,22.7 µM
NC(=O)c1c(OCc2c(F)cc(Br)cc2F)nsc1NC(=O)NCCCCN1CCCC1,> 10 µM,> 10 µM,> 10 µM,3.35 µM,> 10 µM,4.68 µM,2.1 µM,> 10 µM,5.32 µM,8.41 µM,4.59 µM,6.64 µM,5.82 µM,1.71 µM,2.73 µM,2.4 µM,0.498 µM,> 10 µM,1.83 µM,2.22 µM
O=C1Nc2ccccc2SC1C1SC(=S)N(Cc2ccccc2)C1=O (stereo not drawn),5.58 µM,22.3 µM,97.4 µM,18 µM,1.99 µM,32.2 µM,22.8 µM,53.2 µM,19.1 µM,9.28 µM,2.26 µM,5.71 µM,23.6 µM,4.99 µM,0.458 µM,3.46 µM,5.63 µM,21.7 µM,5.29 µM,2.45 µM
CC/C(=C(\c1ccc(O)cc1)c1ccc(OCCNC)cc1)c1ccccc1,4.36 µM and 3.46 µM and 5.25 µM,5.61 µM and 3.77 µM and 8.64 µM,6.83 µM and 7.06 µM and 6.81 µM,3.04 µM and 2.94 µM and 3.28 µM,3.15 µM and 3.14 µM and 3.49 µM,4.43 µM and 4.07 µM and 5.44 µM,4.41 µM and 3 µM and 3.57 µM,8.86 µM and 5.59 µM,3.84 µM and 3.19 µM and 3.83 µM,2.98 µM and 2.95 µM and 3.22 µM,2.15 µM and 1.71 µM and 2.33 µM,2.39 µM and 1.84 µM and 3.33 µM,2.6 µM and 2.55 µM and 2.5 µM,1.67 µM and 1.55 µM and 1.74 µM,1.7 µM and 1.64 µM and 1.81 µM,1.88 µM and 1.89 µM and 2.39 µM,1.54 µM and 1.32 µM and 1.67 µM,2.41 µM and 2.04 µM,1.78 µM and 1.5 µM and 1.97 µM,1.61 µM and 1.54 µM and 1.73 µM
Cc1ccnc2c1NC(=O)c1cccnc1N2C1CC1,> 100 µM,> 100 µM,> 100 µM,> 100 µM,> 100 µM,> 100 µM,> 100 µM,> 100 µM,> 100 µM,> 100 µM,> 100 µM,> 100 µM,> 100 µM,> 100 µM,> 100 µM,> 100 µM,48.7 µM,> 100 µM,> 100 µM,> 100 µM
